Experimental data reported in US8158376B2, “Bisubstrate fluorescent probe binding to protein kinases” (University of Tartu, priority 2006, dated 2012).
Several values for one entry are separate records, joined by “and”; a condition that tells them apart may be missing. Identical values can stand only once. Starred links: 1 amine or outer side, 2 acyl side, 3 side chain; linkers in the order of their positions; H or OH if unused. Non-standard residues stand in square brackets, D forms with d. Residues, ends and D or L forms follow the SMILES beside them. *: point of attachment. Adenosine(5'-uronoyl) = Nc1ncnc2c1ncn2[C@@H]1O[C@H](C(=O)*)[C@@H](O)[C@H]1O; X1 = CN(C)c1ccc2c(-c3ccc(C(=O)*)cc3C(=O)[O-])c3ccc(=[N+](C)C)cc-3oc2c1; Isoquinoline5sulfonyl = O=S(=O)(c1cccc2cnccc12)*; X2 = O=C(CCCCCNCCN[*:1])[*:2]; X3 = CN(CCCCCC(=O)[*:2])[*:1]; 4Amb = NCc1ccc(C(=O)O)cc1; Ahx = NCCCCCC(=O)O; βAla = NCCC(=O)O

What was measured:
cAPK Cα [1] = biological target: T1, cAPK Cα (Homo sapiens, UniProt P17612); test: Inhibition of cAPK Cα-catalysed phosphorylation of TAMRA-kemptide (TLC/fluorescence imaging); type: biochemical; parameters: purchased Biaffin AG; conditions: single site-targeted constituents of the conjugate
Procedure: (§1) The IC50 values of the inhibitors were measured as previously described. [Viht et al., Anal. Biochem. 340 (2005) 165] The inhibitors in various concentrations were incubated at 30° C. in Hepes buffer (50 mM, pH=7.5) containing cAPK Cα (Biaffin AG; about 1 nM), TAMRA-kemptide (10, 30 or 100 μM), ATP (100 μM or 1 mM), magnesium acetate (10 mM) and bovine serum albumin ([…] 0.2 mg/mL). ATP was added last to initiate the phosphorylation reaction. At fixed time points, the reaction was stopped by 20-fold dilution with 75 mM phosphoric acid and obtained solutions were analyzed by normal phase TLC (without fluorescence indicator, eluted with 1-butanol/pyridine/acetic acid/water, 15/10/12/12 by volume). The visualization and quantification of the fluorescent spots were carried out by fluorescence imaging. Data were processed with Graphpad Prism software (version 4, GraphPad).

cAPK Cα [2] = biological target: T1, cAPK Cα; test: Inhibition of TAMRA-kemptide phosphorylation catalyzed by cAPK Cα (TLC, fluorescence imaging); type: biochemical; parameters: purchased Biaffin AG
Procedure: as §1

cAPK Cα [3] = biological target: T1, cAPK Cα; test: Competition: displacement of ARC-TAMRA from complex with cAPK Cα, fluorescence anisotropy, LS 55; type: binding; parameters: purchased Biaffin AG
Procedure: A complex was created between 10 nM of ARC-TAMRA and 10 nM of cAPK Cα in 0.500 ml of buffer (50 mM HEPES, 200 mM NaCl, 0.5 g/l BSA, 5 mM DTT, 0.05% TWEEN 20, MilliQ water; pH 7.4). Different compounds were screened for binding to cAPK Cα against fixed concentrations of ARC-TAMRA and cAPK Cα (FIG. 4). 1-3 μl quantities of various dilutions of the solution of the inhibitor were added to 500 μl solution of ARC-TAMRA complex with the kinase and fluorescence anisotropy was measured after each addition of the […] after 10 min delay time.

cAPK Cα [4] = biological target: T1, cAPK Cα; test: High-throughput displacement of ARC-TAMRA from cAPK Cα, PHERAstar
Procedure: To determine the inhibition constant (Ki), 3-fold serial dilutions of a given inhibitor are performed analogously as for titration experiments. Before the measurement of fluorescence anisotropies the plate is rotated (400 rpm) for 10 minutes at 30° C.

MSK1 = MSK1 (Homo sapiens, UniProt O75582); test: Kinase selectivity panel, residual activity; type: biochemical; conditions: 1 μM compound, 20 μM ATP, 30° C.
Procedure: The assay of protein kinases was performed at 30° C. as described previously [Davies et al., Biochem. J. 351 (2000) 95; Murray et al., Biochem. J. 384 (2004) 477].

PKBb = PKBb (Homo sapiens, UniProt P31751); test: Kinase selectivity panel, residual activity; type: biochemical; conditions: 1 μM compound, 50 μM ATP, 30° C.
Procedure: (§2) The assay of protein kinases was performed at 30° C. as described previously [Davies et al., Biochem. J. 351 (2000) 95; Murray et al., Biochem. J. 384 (2004) 477]. The results of the testing are expressed as the % of residual activity of the kinase in the presence of the inhibitor at 1 micromolar concentration.

PRK2 = PRK2 (Homo sapiens, UniProt Q16513); test: Kinase selectivity panel, residual activity; type: biochemical
Procedure: as §2

PKBΔph = PKBΔph (Homo sapiens, UniProt P31749); test: Kinase selectivity panel, residual activity; type: biochemical; conditions: 1 μM compound, 5 μM ATP, 30° C.
Procedure: as §2

cAPK Cα [5] = biological target: T1, cAPK Cα; test: Titration of ARC-TAMRA with cAPK Cα, fluorescence anisotropy, LS 55 spectrometer 0.5 ml cell; type: binding; parameters: purchased Biaffin AG; conditions: LS 55, 0.5 ml quartz cell, read-out: Kd of ARC-TAMRA complex with cAPK Cα
Procedure: The change in fluorescence anisotropy was plotted against the kinase concentration [cAPK Cα]. The data were fitted to the equation: […]
The binding of the fluorescent probe ARC-TAMRA to the kinase cAPK Cα (Biaffin) was studied at 10 nM or 2 nM ARC-TAMRA concentration (excitation at 557 nm, slitwidth 10 nm; emission at 585 nm, slitwidth 10 nm, detection of fluorescence polarization).
10 nM solution of ARC-TAMRA in 500 μl of buffer (50 mM HEPES, 200 mM NaCl, 0.5 g/l BSA, 5 mM DTT, 0.05% TWEEN 20, MilliQ water; pH 7.4) was titrated with the solution of kinase cAPK Cα (Biaffin). 1-3 μl quantities of various dilutions of kinase solution were added to 500 μl of 2.0 nM or 10.0 nM solution of ARC-TAMRA, and fluorescence anisotropy was measured after each addition of the kinase solution after 10 min delay time. The change in fluorescence anisotropy was plotted against the kinase concentration [cAPK Cα]. The data were fitted to the equation: […]

[6] = biological target: Rho-associated kinase ROCK II (Homo sapiens, UniProt O75116); test: Titration of ARC-TAMRA with ROCK II, PHERAstar; type: binding; conditions: 2 nM and 20 nM ARC-TAMRA, read-out: Kd of ARC-TAMRA-ROCK II complex
Procedure: Experiments were performed in the wells of 384-well microtiter plates and with the measurements of fluorescence anisotropy with the platereader PHERAStar according to the protocols described in the Example 7.

cAPK Cα [7] = biological target: T1, cAPK Cα; test: Titration of ARC-TAMRA with cAPK Cα, PHERAstar plate reader, 384-well; type: binding; parameters: purchased Biaffin AG; conditions: 2 nM and 20 nM ARC-TAMRA, 20 μl, 30° C., read-out: Kd of ARC-TAMRA complex with cAPK Cα
Procedure: Titrations of 2 nM and 20 nM ARC-TAMRA solutions were performed with cAPK C[…]. 2-fold serial dilutions of the kinase were used leading to concentrations of the kinase between 100 nM and 0.05 nM and 20 μl reaction volumes on a 384-well microtiter plate. […] Optical conditions for the measurements were set as the following: 540 nm excitation and 590 nm emission (20 nm bandpass filters). To find the value of Kd, titration curves were analyzed by a scientific curve-fitting program, e.g., GraphPad Prism 4.03, with nonlinear regression, using the function below:
[formula] where A is measured anisotropy, Af—anisotropy value for free ARC-Photo, Ab—anisotropy value for bound ARC-Photo, Lt—total concentration of ARC-Photo, Rt—nominal total concentration of enzyme, k—concentration of active enzyme divided by nominal concentration of enzyme, Kd—dissociation constant for ARC-Photo complex with enzyme. […] Determination of the Inhibition Constants (Ki)

[8] = 100 μM ATP and 30 μM TAMRA-kemptide, read-out: IC50

MSK1, sequence (O75582 whole entry): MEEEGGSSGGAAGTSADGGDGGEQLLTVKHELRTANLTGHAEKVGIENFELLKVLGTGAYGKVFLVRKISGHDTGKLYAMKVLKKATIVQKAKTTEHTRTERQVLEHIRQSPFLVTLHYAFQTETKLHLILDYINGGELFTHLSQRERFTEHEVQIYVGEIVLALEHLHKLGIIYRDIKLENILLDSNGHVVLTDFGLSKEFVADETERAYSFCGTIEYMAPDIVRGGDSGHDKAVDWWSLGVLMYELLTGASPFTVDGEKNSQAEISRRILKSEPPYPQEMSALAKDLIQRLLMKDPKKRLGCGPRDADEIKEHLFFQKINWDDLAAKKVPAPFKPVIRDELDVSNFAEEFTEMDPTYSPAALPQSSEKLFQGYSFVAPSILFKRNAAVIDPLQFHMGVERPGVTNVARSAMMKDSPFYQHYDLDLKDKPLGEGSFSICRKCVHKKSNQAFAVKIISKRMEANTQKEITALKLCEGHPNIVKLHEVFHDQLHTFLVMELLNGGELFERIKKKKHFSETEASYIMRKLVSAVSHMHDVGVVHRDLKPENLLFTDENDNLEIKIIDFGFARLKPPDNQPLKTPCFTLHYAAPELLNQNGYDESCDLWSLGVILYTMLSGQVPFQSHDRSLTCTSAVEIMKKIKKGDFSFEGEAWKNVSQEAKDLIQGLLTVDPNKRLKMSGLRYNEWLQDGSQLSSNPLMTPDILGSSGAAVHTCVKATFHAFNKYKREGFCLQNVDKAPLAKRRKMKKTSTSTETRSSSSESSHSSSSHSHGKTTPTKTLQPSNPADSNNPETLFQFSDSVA
Rho-associated kinase ROCK II, sequence (O75116 whole entry): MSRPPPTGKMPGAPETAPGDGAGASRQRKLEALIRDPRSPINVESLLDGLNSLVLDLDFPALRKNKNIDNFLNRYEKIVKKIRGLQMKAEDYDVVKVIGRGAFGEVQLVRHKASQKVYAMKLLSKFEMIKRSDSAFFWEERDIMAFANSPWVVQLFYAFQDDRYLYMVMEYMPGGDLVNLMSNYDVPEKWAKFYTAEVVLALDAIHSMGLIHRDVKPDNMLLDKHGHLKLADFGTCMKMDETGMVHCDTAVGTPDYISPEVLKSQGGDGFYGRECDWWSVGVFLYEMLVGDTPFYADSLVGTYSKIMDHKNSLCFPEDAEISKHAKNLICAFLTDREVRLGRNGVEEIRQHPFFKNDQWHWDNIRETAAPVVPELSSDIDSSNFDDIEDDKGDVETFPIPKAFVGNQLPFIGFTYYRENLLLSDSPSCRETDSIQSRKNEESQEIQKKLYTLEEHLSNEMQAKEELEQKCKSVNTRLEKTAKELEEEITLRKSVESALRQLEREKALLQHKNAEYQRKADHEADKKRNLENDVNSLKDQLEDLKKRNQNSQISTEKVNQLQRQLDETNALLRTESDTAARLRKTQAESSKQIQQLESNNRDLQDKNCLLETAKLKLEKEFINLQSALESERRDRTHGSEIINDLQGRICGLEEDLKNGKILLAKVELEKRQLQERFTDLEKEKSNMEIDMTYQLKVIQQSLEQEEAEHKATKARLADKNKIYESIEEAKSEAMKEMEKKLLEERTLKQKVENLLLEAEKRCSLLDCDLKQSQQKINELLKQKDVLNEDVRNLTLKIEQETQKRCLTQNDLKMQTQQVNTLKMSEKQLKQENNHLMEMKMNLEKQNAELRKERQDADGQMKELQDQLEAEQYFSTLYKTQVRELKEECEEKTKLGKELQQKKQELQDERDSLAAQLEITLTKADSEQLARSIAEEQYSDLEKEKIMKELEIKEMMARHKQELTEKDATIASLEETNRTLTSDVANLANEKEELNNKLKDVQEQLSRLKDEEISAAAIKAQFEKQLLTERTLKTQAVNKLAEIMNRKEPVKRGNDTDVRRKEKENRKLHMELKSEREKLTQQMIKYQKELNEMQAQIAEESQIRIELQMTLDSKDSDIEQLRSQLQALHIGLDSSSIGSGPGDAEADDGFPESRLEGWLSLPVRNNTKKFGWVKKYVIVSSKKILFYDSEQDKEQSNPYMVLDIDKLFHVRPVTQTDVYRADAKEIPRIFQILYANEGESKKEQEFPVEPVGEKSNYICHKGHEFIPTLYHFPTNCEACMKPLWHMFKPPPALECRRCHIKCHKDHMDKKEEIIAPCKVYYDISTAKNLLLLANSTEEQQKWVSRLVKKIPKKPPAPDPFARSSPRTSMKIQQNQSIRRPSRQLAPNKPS
PKBΔph, sequence (P31749 whole entry, stated change not applied): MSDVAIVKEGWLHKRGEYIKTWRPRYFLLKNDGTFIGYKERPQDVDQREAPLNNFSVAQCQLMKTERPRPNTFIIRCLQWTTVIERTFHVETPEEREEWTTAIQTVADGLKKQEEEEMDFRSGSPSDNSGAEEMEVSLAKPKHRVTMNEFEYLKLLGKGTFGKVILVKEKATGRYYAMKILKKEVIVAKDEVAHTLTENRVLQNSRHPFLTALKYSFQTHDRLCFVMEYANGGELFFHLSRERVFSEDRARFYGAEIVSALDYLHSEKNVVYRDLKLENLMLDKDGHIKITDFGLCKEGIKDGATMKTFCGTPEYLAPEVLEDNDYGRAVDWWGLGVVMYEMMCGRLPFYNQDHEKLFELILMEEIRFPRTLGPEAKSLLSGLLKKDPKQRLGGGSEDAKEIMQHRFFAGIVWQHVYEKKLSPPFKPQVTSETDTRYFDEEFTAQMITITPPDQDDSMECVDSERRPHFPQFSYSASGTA
PRK2, sequence (Q16513 whole entry): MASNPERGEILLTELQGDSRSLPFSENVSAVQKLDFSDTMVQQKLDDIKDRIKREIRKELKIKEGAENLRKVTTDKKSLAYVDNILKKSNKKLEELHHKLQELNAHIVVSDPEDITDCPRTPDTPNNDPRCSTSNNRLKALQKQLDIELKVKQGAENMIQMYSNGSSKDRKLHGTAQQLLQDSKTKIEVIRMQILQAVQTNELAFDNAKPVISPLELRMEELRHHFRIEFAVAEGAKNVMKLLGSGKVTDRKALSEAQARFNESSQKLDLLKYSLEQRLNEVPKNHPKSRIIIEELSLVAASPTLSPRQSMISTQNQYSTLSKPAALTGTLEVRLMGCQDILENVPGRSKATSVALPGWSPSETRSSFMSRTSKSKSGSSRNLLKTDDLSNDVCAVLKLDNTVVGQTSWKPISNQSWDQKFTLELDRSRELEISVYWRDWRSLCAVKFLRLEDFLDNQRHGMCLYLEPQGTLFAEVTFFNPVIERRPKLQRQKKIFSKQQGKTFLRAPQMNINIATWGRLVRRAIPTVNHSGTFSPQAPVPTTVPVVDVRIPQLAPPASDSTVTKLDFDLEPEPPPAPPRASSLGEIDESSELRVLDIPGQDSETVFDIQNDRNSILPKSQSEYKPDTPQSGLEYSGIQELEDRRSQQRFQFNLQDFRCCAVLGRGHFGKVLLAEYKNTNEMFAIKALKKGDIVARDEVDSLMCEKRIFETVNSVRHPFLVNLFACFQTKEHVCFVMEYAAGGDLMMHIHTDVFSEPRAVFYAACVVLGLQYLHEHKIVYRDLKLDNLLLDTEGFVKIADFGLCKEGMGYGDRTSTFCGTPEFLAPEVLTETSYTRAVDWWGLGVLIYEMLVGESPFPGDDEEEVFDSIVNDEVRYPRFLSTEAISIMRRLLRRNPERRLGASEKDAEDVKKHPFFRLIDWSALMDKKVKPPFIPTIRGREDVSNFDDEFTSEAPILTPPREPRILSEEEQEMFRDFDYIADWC
PKBb, sequence (P31751 whole entry): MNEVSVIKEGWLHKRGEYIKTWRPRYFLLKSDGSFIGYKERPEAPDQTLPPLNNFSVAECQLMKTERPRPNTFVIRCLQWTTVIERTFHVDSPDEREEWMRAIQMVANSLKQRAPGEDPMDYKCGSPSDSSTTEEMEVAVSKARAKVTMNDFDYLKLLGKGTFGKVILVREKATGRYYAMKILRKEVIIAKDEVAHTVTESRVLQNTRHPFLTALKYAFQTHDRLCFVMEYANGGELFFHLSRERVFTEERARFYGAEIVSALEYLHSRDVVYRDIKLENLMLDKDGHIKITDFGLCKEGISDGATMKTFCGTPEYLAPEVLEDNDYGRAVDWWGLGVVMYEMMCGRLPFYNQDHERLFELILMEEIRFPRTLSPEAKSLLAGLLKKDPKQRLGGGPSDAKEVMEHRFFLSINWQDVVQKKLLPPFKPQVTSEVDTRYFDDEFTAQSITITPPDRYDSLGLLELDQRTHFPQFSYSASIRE

Nc1ncnc2c1ncn2[C@@H]1O[C@H](CO)[C@@H](O)[C@H]1O [Ado, adenosine]
inhibitory potency (cAPK Cα [1]): submillimolar

N=C(N)NCCC[C@H](NC(=O)[C@H](CCCNC(=N)N)NC(=O)[C@H](CCCNC(=N)N)NC(=O)[C@H](CCCNC(=N)N)NC(=O)CCCCCNCCNS(=O)(=O)c1cccc2cnccc12)C(N)=O [Compound 25] (Isoquinoline5sulfonyl-[X2]RRRR-NH2)
IC50 (cAPK Cα [2]; second value in parentheses, condition not stated in table (method: ATP 100 μM or 1 mM), read-out: IC50 (μM), value in parentheses (converted)): 0.22 µM

N=C(N)NCCC[C@@H](NC(=O)[C@@H](CCCNC(=N)N)NC(=O)[C@@H](CCCNC(=N)N)NC(=O)[C@@H](CCCNC(=N)N)NC(=O)CCCCCNC(=O)[C@H]1O[C@@H](n2cnc3c(N)ncnc32)[C@H](O)[C@@H]1O)C(N)=O [Compound 4] ({Adenosine(5'-uronoyl)-Ahx}-[dR][dR][dR][dR]-NH2)
IC50 (cAPK Cα [2]; [8]): 0.33 ± 0.03 µM

N=C(N)NCCC[C@H](NC(=O)[C@H](CCCNC(=N)N)NC(=O)[C@H](CCCNC(=N)N)NC(=O)[C@H](CCCNC(=N)N)NC(=O)[C@H](CCCNC(=N)N)NC(=O)[C@H](CCCNC(=N)N)NC(=O)CCCCCNC(=O)[C@H]1O[C@@H](n2cnc3c(N)ncnc32)[C@H](O)[C@@H]1O)C(N)=O [Compound 3, AdcAhx(L-Arg)6-NH2]
IC50 (cAPK Cα [3]; 10 nM ARC-TAMRA, 10 nM cAPK Cα): 1.3 µM
Ki (cAPK Cα [3]; read-out: Ki (competitive binding)): 0.11 µM
Ki (cAPK Cα [4]): 0.021 µM

CC(=O)N[C@H](CCCNC(=N)N)C(=O)N[C@H](CCCNC(=N)N)C(=O)N[C@H](CCCNC(=N)N)C(=O)N[C@H](CCCNC(=N)N)C(=O)N[C@H](CCCNC(=N)N)C(=O)N[C@H](CCCNC(=N)N)C(=O)N[C@H](CCCCN)C(N)=O [Compound 27, Ac-(D-Arg)6-D-Lys-NH2] (Ac-[dR][dR][dR][dR][dR][dR][dK]-NH2)
IC50 (cAPK Cα [2]; [8]): ~3000 µM

N=C(N)NCCC[C@H](NC(=O)[C@H](CCCNC(=N)N)NC(=O)[C@H](CCCNC(=N)N)NC(=O)[C@H](CCCNC(=N)N)NC(=O)c1ccc(CNC(=O)[C@H]2O[C@@H](n3cnc4c(N)ncnc43)[C@H](O)[C@@H]2O)cc1)C(N)=O [Compound 7] ({Adenosine(5'-uronoyl)-4Amb}-RRRR-NH2)
IC50 (cAPK Cα [2]; [8]): 23 ± 4 µM

CN(CCCCCC(=O)N[C@@H](CCCNC(=N)N)C(=O)N[C@@H](CCCNC(=N)N)C(=O)N[C@@H](CCCNC(=N)N)C(=O)N[C@@H](CCCNC(=N)N)C(N)=O)C(=O)[C@H]1O[C@@H](n2cnc3c(N)ncnc32)[C@H](O)[C@@H]1O [Compound 6] ({Adenosine(5'-uronoyl)}-[X3]RRRR-NH2)
IC50 (cAPK Cα [2]; [8]): 2.6 ± 0.6 µM

N=C(N)NCCC[C@@H](NC(=O)[C@@H](CCCNC(=N)N)NC(=O)[C@@H](CCCNC(=N)N)NC(=O)[C@@H](CCCNC(=N)N)NC(=O)[C@@H](CCCNC(=N)N)NC(=O)[C@@H](CCCNC(=N)N)NC(=O)CCCCCNCCNS(=O)(=O)c1cccc2cnccc12)C(N)=O [Compound 26, H9-(CH2)5C(O)(D-Arg)6-NH2]
remaining activity at 1 µM (MSK1): ≤ 3%
remaining activity at 1 µM (PKBb): ≤ 3%
remaining activity at 1 µM (PRK2): ≤ 3%
residual activity (PKBΔph): ≤ 3%

Nc1ncnc2c1ncn2[C@@H]1O[C@H](CO)[C@@H](O)[C@H]1O [Ado, adenosine, reference compound]
IC50 (cAPK Cα [2]; [8]): 350 ± 40 µM

CN(C)c1ccc2c(-c3ccc(C(=O)NCCCC[C@@H](NC(=O)[C@@H](CCCNC(=N)N)NC(=O)[C@@H](CCCNC(=N)N)NC(=O)[C@@H](CCCNC(=N)N)NC(=O)[C@@H](CCCNC(=N)N)NC(=O)[C@@H](CCCNC(=N)N)NC(=O)[C@@H](CCCNC(=N)N)NC(=O)CCCCCNC(=O)[C@H]4O[C@@H](n5cnc6c(N)ncnc65)[C@H](O)[C@@H]4O)C(N)=O)cc3C(=O)[O-])c3ccc(=[N+](C)C)cc-3oc2c1 [ARC-TAMRA, AdcAhx(D-Arg)6-D-Lys(5-TAMRA)-C(O)NH2] ({Adenosine(5'-uronoyl)-Ahx}-[dR][dR][dR][dR][dR][dR][dK](X1)-NH2)
Kd (cAPK Cα [5]; 2 nM ARC-TAMRA): 0.0011 µM
Kd (cAPK Cα [5]; 10 nM ARC-TAMRA): 0.001 µM and 0.00094 µM
Kd [6]: 0.004 µM
Kd (cAPK Cα [7]): 0.0004 µM
IC50 (cAPK Cα [2]; read-out: IC50 of inhibition towards cAPK): 0.0062 µM

N=C(N)NCCC[C@H](NC(=O)[C@H](CCCNC(=N)N)NC(=O)[C@H](CCCNC(=N)N)NC(=O)[C@H](CCCNC(=N)N)NC(=O)CCCCCNC(=O)[C@H]1O[C@@H](n2cnc3c(N)ncnc32)[C@H](O)[C@@H]1O)C(N)=O [Compound 2] ({Adenosine(5'-uronoyl)-Ahx}-RRRR-NH2)
IC50 (cAPK Cα [2]; [8]): 2 ± 0.3 µM

NCCNS(=O)(=O)c1cccc2cnccc12 [Compound H9, 5-isoquinolinesulfonyl ethylenediamine, reference compound]
IC50 (cAPK Cα [2]; [8]): 3.7 ± 0.3 µM

N=C(N)NCCC[C@H](NC(=O)[C@H](CCCNC(=N)N)NC(=O)[C@H](CCCNC(=N)N)NC(=O)[C@H](CCCNC(=N)N)NC(=O)CCNC(=O)[C@H](Cc1ccccc1)NC(=O)[C@H]1O[C@@H](n2cnc3c(N)ncnc32)[C@H](O)[C@@H]1O)C(N)=O [Compound 8] ({Adenosine(5'-uronoyl)}-F[βAla]RRRR-NH2)
IC50 (cAPK Cα [2]; [8]): 3.7 ± 0.3 µM

RIIa: regulatory subunit of cAMP-dependent protein kinase RIIα, substrate protein-competitive inhibitor
Ki (cAPK Cα [4]; read-out: Ki (displacement of ARC-TAMRA), 2 nM ARC-TAMRA, 3 nM cAPK Cα, PHERAstar, Kd 0.4 nM used): 0.0005 µM
